According to ChEMBL document CHEMBL1142780, “Phenylpyrroles, a new chemolibrary virtual screening class of 5-HT7 receptor ligands” (Bioorg Med Chem Lett, 2005):

Key:
[1] = target: 5-hydroxytryptamine receptor 7 (Rattus norvegicus) (UniProt P32305); assay: Inhibition of the binding of [3H]LSD on rat 5-HT7R expressed in HEK293 cells at concentration of 10e-8 M; type: cell-based
[2] = target: 5-hydroxytryptamine receptor 7 (Rattus norvegicus) (UniProt P32305); assay: Inhibition of the binding of [3H]LSD on rat 5-HT7R expressed in HEK293 cells at concentration of 10e-6 M; type: cell-based
[3] = target: 5-hydroxytryptamine receptor 7 (Rattus norvegicus) (UniProt P32305); assay: Inhibition of the binding of [3H]LSD on rat 5-HT7R in HEK293 cells at concentration of 10e-6 M; type: cell-based
[4] = target: 5-hydroxytryptamine receptor 7 (Rattus norvegicus) (UniProt P32305); assay: Inhibition of the binding of [3H]LSD on rat 5-HT7R in HEK293 cells at concentration of 10e-8 M; type: cell-based
[5] = target: T1, 5-hydroxytryptamine receptor 7 (Homo sapiens, UniProt P34969); assay: Inhibition of the binding of [3H]LSD on human 5-HT7R expressed in sf9 cells at concentration of 10e-6 M
T1 sequence (P34969 whole entry): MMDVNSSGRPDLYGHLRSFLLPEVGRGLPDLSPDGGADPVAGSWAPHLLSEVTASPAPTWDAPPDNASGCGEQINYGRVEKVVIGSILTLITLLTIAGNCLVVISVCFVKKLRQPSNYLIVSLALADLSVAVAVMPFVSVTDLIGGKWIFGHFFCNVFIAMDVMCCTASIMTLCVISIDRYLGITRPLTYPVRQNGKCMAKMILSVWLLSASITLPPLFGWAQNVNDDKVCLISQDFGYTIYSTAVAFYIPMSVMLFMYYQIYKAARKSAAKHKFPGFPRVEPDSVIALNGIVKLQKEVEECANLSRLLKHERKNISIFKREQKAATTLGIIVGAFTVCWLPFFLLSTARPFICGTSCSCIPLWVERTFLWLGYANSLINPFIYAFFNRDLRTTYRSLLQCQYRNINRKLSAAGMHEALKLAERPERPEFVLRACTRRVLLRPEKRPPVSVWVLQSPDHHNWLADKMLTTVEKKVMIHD

[6] = target: T1, 5-hydroxytryptamine receptor 7; assay: Inhibition of the binding of [3H]LSD on human 5-HT7R expressed in sf9 cells at concentration of 10e-8 M
[7] = target: T1, 5-hydroxytryptamine receptor 7; assay: Binding affinity against Human 5-HT7R expressed in sf9 cells
[8] = target: 5-hydroxytryptamine receptor 7 (Rattus norvegicus, UniProt P32305); assay: Binding affinity against rat 5-HT7R expressed in HEK293 cells; type: cell-based
5-hydroxytryptamine receptor 7 (Rattus norvegicus, UniProt P32305), sequence (P32305 whole entry): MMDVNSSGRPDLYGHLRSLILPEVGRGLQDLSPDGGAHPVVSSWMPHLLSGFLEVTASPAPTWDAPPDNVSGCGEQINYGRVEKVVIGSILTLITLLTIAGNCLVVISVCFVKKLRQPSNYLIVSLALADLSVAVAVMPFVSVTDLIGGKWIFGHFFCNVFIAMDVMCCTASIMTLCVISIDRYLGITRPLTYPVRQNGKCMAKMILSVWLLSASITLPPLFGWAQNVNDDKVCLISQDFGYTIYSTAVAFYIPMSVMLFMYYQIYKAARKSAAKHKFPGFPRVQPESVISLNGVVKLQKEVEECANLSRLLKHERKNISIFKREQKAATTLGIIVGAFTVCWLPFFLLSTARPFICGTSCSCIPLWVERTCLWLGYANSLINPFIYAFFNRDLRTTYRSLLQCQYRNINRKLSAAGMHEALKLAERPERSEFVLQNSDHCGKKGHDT

[9] = target: 5-hydroxytryptamine receptor 6 (Homo sapiens) (UniProt P50406); assay: Inhibition of the binding of [3H]LSD (radioligand) on human 5-HT6 receptor at concentration of 10e-8 M
5-hydroxytryptamine receptor 6 (Homo sapiens), sequence (P50406 whole entry): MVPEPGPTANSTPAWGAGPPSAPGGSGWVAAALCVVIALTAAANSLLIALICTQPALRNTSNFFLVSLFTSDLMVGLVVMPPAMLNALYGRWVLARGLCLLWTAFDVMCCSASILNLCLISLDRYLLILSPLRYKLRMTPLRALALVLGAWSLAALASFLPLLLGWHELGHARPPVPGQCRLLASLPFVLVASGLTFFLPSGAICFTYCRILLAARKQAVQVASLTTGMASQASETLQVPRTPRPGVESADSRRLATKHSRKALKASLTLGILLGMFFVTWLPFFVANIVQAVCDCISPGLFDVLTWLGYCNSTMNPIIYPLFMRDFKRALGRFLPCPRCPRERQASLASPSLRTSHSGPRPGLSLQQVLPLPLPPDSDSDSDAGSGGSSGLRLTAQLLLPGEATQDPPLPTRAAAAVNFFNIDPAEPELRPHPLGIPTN

[10] = target: T2, 5-hydroxytryptamine receptor 1A (Rattus norvegicus, UniProt P19327); assay: Binding affinity against rat 5-HT1A receptor
T2 sequence (P19327 whole entry): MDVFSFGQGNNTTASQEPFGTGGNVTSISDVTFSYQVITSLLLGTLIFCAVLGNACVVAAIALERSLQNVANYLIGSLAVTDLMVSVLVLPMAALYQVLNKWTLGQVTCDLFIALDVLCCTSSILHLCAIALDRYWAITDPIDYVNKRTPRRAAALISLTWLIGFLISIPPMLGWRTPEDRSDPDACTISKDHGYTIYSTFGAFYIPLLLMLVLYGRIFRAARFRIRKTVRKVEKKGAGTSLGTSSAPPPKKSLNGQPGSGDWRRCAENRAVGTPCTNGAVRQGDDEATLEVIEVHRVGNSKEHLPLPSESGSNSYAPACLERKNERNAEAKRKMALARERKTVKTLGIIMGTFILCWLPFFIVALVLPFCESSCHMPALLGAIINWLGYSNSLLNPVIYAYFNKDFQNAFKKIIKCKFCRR

[11] = target: 5-hydroxytryptamine receptor 6 (Homo sapiens) (UniProt P50406); assay: Inhibition of the binding of [3H]LSD (radioligand) on human 5-HT6 receptor at concentration of 10e-6 M
[12] = target: T1, 5-hydroxytryptamine receptor 7
Description: PKb value against Human 5-HT7 receptor

5-hydroxytryptamine receptor 7 (Rattus norvegicus), sequence (P32305 whole entry): as the sequence (P32305 whole entry) above

inhibition [1]	inhibition [2]	inhibition [3]	inhibition [4]	inhibition [5]	inhibition [6]	SMILES	further results
0%	33%					Cc1cccc(-n2cccc2CN2CCN(C)CC2)c1C	
		6%	0%			COc1ccccc1N1CCN(Cc2ccn(-c3ccccc3OC)c2)CC1	
				71%	14%	c1ccc(N2CCN(Cc3cccn3-c3ccccc3)CC2)cc1	
				31%	6%	COc1ccc(OC)c(-n2cccc2CCN)c1	
		34%	7%			N#Cc1ccccc1-n1ccc(CN2CCN(c3noc4ccccc34)CC2)c1	
		42%	9%			Cc1ccccc1-n1ccc(CN2CCN(c3noc4ccccc34)CC2)c1	
		95%	22%			COc1ccccc1N1CCN(Cc2ccn(-c3ccccc3C)c2)CC1	Ki [7]: 4.7 nM; Ki [8]: 21 nM; inhibition [9]: 7%; Ki [10]: 9.9 nM; inhibition [11]: 9%
0%	47%					Cc1ccccc1-n1cccc1CN1CCN(c2noc3ccccc23)CC1	
				14%	0%	CCOc1ccc(OCC)c(-n2cccc2CCN)c1	
16%	80%					COc1ccccc1N1CCN(Cc2cccn2-c2ccccc2OC)CC1	
0%	26%					COc1ccccc1N1CCN(Cc2cccn2-c2ccccc2-c2ccccc2)CC1	
				91%	0%	COc1ccccc1N1CCN(Cc2cccn2-c2ccccc2)CC1	
				72%	0%	Cc1cccc(-n2cccc2CCN)c1C	
		91%	0%			COc1ccccc1N1CCN(Cc2ccn(-c3cccc(C)c3C)c2)CC1	
7%	38%					COc1ccccc1N1CCN(Cc2cccn2-c2ccccc2C(F)(F)F)CC1	
				58%	0%	NCCc1cccn1-c1ccccc1Cl	
		86%	6%			COc1ccccc1N1CCN(Cc2ccn(-c3cccc4ccccc34)c2)CC1	
17%	60%					COc1ccccc1N1CCN(Cc2cccn2-c2cccc3ccccc23)CC1	
0%	63%					COc1ccccc1N1CCN(Cc2cccn2-c2ccccc2C)CC1	
				31%	0%	NCCc1cccn1-c1ccccc1	
2%	68%					COc1ccccc1N1CCN(Cc2cccn2-c2cccc(C)c2C)CC1	
				66%	0%	COc1ccccc1N1CCN(Cc2cccn2-c2ccc(Cl)cc2Cl)CC1	
0%	12%					COc1ccccc1-n1cccc1CN1CCN(C)CC1	
		96%	14%			COc1ccccc1N1CCN(Cc2ccn(-c3ccccc3C#N)c2)CC1	PKb [12]: 7.43; Ki [7]: 5.4 nM; Ki [8]: 19 nM; inhibition [9]: 10%; Ki [10]: 33.7 nM; inhibition [11]: 12%
						COC(=O)c1cccc(C)c1-n1ccc(CN2CCN(c3ccccc3OC)CC2)c1	PKb [12]: 7.66; Ki [7]: 18 nM; inhibition [9]: 9%; Ki [10]: 18.5 nM; inhibition [11]: 20%
		91%	21%			COc1ccccc1N1CCN(Cc2ccn(-c3ccccc3C(F)(F)F)c2)CC1	Ki [8]: 105 nM
1%	43%					N#Cc1ccccc1-n1cccc1CN1CCN(c2noc3ccccc23)CC1	
0%	24%					COc1ccccc1N1CCN(Cc2cccn2-c2ccccc2C#N)CC1	
				36%	3%	COc1ccc(-n2cccc2CCN)cc1	
		32%	0%			COc1ccccc1N1CCN(Cc2ccn(-c3c(C)cc(C)cc3C)c2)CC1	
